No end group written: not given here.
Target: human NMB receptor (Homo sapiens, UniProt P28336)
Experiment: Binding to hNMB receptors, both cell lines
Conditions: relative to the natural ligand NMB

Chain of human NMB receptor (P28336 whole entry): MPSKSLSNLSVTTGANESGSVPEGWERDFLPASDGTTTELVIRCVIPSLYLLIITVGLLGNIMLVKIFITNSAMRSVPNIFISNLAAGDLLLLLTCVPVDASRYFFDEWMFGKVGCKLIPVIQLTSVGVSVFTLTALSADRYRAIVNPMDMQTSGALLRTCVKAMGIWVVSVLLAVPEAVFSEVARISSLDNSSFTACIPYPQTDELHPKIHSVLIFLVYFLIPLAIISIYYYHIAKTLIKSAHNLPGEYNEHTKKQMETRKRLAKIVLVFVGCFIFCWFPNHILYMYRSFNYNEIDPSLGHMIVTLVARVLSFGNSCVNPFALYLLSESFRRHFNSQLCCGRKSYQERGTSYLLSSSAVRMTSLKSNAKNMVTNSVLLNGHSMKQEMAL

## LSWDLPEPRSRAGKIRVHPRGNLWATGHFM-NH2 [NMB30, Neuromedin B (1–30)]
  Fold lower affinity for human NMB receptor than NMB: > 3 fold
